According to patent publication US7846719B2, “Express system of soluble glutaminyl cyclase” (Academia Sinica, priority 2006, dated 2010):
Like-named read-outs stand apart in the source and are kept apart here. Values belong to the molecule of their own block, whether it stands above or below them. Peptide text beside a SMILES is read from it.

Key:
Human QC [1] = biological target: T1, Human QC (Homo sapiens, UniProt Q16769); assay: QC inhibition test, spectrophotometric, 96-well microplate; assay type: biochemical; design: corresponding to the coding region of human QC (Ala33-Leu361) was re-amplified and inserted into a pET-43.1a expression vector; Nus fusion (pET-43.1a construct) or thioredoxin fusion (pET-32a construct) (N, cleaved yes); (His)6 (pET-43.1a construct: N- and C-terminal sites; pET-32a construct: 5'-end, upstream of the Factor Xa site); made in house; host or cells: E. coli BL21 (DE3); conditions: inhibitor 140 μM, substrate H-Gln-Gln-OH 0.55 mM, human QC 28.8 nM, preincubation 5 to 10 min; for remaining activity at 140 µM: read-out: QC activity (% of control)
Experimental: Reactions were started by the addition of QC (0.04 to 2.5 μg), and the activity was monitored by recording the decrease of NADH absorbance at 340 nm.
For an inhibition test, the reaction composition was the same as described above, except for the addition of the inhibitor compound. Prior to the spectrophotometric analysis on a 96-well microplate, the enzyme was incubated with the inhibitor for 5 to 10 min.
Target sequence in this assay (Q16769 33-361): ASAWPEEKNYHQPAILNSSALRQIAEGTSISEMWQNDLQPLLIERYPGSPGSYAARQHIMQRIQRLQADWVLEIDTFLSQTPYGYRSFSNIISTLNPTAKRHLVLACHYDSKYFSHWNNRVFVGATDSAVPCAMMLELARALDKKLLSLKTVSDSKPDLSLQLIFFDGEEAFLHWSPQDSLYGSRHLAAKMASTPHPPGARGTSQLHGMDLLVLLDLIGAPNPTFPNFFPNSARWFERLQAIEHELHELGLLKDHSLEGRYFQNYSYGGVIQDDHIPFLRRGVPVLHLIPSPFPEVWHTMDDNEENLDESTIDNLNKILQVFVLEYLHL

Human QC [2] = biological target: T1, Human QC; design: host or cells: Pichia pastoris; conditions: substrate of human QC expressed in Drosophila S2 cell; reported by Booth et al.; cited from earlier work
Target sequence in this assay (Q16769 29-361): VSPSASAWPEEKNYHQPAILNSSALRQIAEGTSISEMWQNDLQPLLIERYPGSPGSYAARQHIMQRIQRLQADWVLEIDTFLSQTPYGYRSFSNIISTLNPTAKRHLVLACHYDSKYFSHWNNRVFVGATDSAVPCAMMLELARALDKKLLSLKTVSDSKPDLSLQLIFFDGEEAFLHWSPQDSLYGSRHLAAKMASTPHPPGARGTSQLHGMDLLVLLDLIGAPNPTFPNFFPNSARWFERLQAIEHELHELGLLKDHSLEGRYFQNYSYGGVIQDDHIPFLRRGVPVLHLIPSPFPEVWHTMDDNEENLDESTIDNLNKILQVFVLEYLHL

Human QC [3] = biological target: T1, Human QC; design: host or cells: Pichia pastoris; conditions: substrate of human QC expressed in Pichia pastoris cell; reported by Schilling et al.; cited from earlier work
Target sequence in this assay (Q16769 29-361): as above

Human QC [4] = biological target: T1, Human QC; assay: Spectrophotometric QC activity assay (glutamate dehydrogenase coupled), human QC expressed in E. coli; assay type: biochemical; design: corresponding to the coding region of human QC (Ala33-Leu361) was re-amplified and inserted into a pET-43.1a expression vector; Nus fusion (pET-43.1a construct) or thioredoxin fusion (pET-32a construct) (N, cleaved yes); (His)6 (pET-43.1a construct: N- and C-terminal sites; pET-32a construct: 5'-end, upstream of the Factor Xa site); made in house; host or cells: E. coli BL21 (DE3); conditions: substrate of human QC expressed in Escherichia coli cell, mean ± SD (n = 2)
Experimental: For the spectrophotometric method, the 500 μl assay solutions consisted of 15 units glutamate dehydrogenase, 12 mM α-ketoglutarate, 0.6 mM NADH (a reduced form of NAD (nicotinamide adenine dinucleotide)) and varying concentrations of synthetic substrate in 50 mM Tris-HCl, pH 8.0. Reactions were started by the addition of QC (0.04 to 2.5 μg), and the activity was monitored by recording the decrease of NADH absorbance at 340 nm.
The Km and kcat values determined for the recombinant protein of the invention were very similar to the human QC expressed in Drosophila S2 cells, as evident in Table 1.
Target sequence in this assay (Q16769 33-361): as the sequence (Q16769 33-361) above

Human QC [5] = biological target: T1, Human QC; assay: QC activity analysis by reverse-phase HPLC on [Gln1]-TRH; assay type: biochemical; design: corresponding to the coding region of human QC (Ala33-Leu361) was re-amplified and inserted into a pET-43.1a expression vector; Nus fusion (pET-43.1a construct) or thioredoxin fusion (pET-32a construct) (N, cleaved yes); (His)6 (pET-43.1a construct: N- and C-terminal sites; pET-32a construct: 5'-end, upstream of the Factor Xa site); made in house; host or cells: E. coli BL21 (DE3); conditions: 50 mM Tris-HCl
Experimental: QC activity was analyzed based on reverse-phase HPLC and spectrophotometric measurement. […] A reaction without addition of human QC was provided as a control in the assay. Subsequently, a 20 μl aliquot of the mixture was subjected to HPLC analysis on a Waters liquid chromatograph using a C18 column (Waters, Milford, Mass.). The bound materials were eluted by a three-step linear gradient of methanol containing 0.1% trifluoroacetic acid (TFA). The eluates were detected at 214 nm and identified by mass spectrometry and N-terminal sequencing.
The synthetic [Gln^1]-TRH (Gln-His-Pro), one of the putative physiological substrates of human QC, was used to analyze the QC activity of the recombinant protein based on the HPLC elution profile of the peptide.
Target sequence in this assay (Q16769 33-361): as above

remaining activity at 140 µM (Human QC [1]): 89.1%
Molecule: CSc1nnn[nH]1 [5-(methylthio)-1H-tetrazole]

remaining activity at 140 µM (Human QC [1]): 90.6%
Molecule: CCOC(=O)Cc1nnn[nH]1 [ethyl 1H-tetrazole-5-acetate]

remaining activity at 140 µM (Human QC [1]): 78.2%
Molecule: O=c1[nH][nH]c(=O)n1-c1ccccc1 [4-phenyl-1,2,4-triazoleine-3,5-dione]

kcat (Human QC [4]): 20.9 ± 2.1 s⁻¹
Km (Human QC [4]; 50 mM Tris-HCl, pH 8.0): 4100 ± 600 µM
Molecule: CC(C)(C)OC(=O)[C@@H](N)CCC(N)=O [Gln-t-butyl ester, H-Gln-t-butyl ester]
Km (Human QC [2]): 6700 ± 2000 µM
kcat (Human QC [2]): 16.0 s⁻¹
Km (Human QC [3]): 1200 ± 100 µM
kcat (Human QC [3]): 6.7 ± 0.2 s⁻¹

Turnover in the absence of human QC (Human QC [5]; 5 days, pH 8.0, at 25° C., no enzyme): less than 20%
Conversion into [pGlu1]-TRH by human QC (Human QC [5]; within 20 minutes, 0.6 μM human QC, 14.8 mM substrate, pH 8.0, 25° C.): almost completely converted
Molecule: [Gln^1]-TRH (Gln-His-Pro)

The remaining lines, values behind:

Molecule: Nc1n[nH]c(N)n1 [3,5-diamino-1,2,4-triazole]
remaining activity at 140 µM (Human QC [1]): 89.9%

Molecule: c1ccc(Cn2ccnc2)cc1 [1-benzylimidazole]
remaining activity at 140 µM (Human QC [1]): 41.5%

Molecule: Nc1nc[nH]n1 [3-amino-1,2,4-triazole]
remaining activity at 140 µM (Human QC [1]): 84.5%

Molecule: c1ccc(N=c2[n-][n+](-c3ccccc3)cn2-c2ccccc2)cc1 [nitron]
QC activity (% of control) (Human QC [1]): 61.4 % of control

Molecule: NC(=O)CC[C@H](NC(=O)[C@@H](N)CCC(N)=O)C(=O)O [Gln-Gln, H-Gln-Gln-OH] (H-Gln-Gln-OH)
Km (Human QC [2]): 700 ± 400 µM
kcat (Human QC [2]): 10.0 s⁻¹
Km (Human QC [3]): 100 µM
kcat (Human QC [3]): 20.7 ± 0.2 s⁻¹
